Test results from patent US9403805B2, “Antiviral compounds” (Hoffmann-La Roche Inc., priority 2012, dated 2016).

Test system: HCV GT1b replicon
Test: HCV GT1b replicon luciferase reporter assay (2209-23 cells)
Format: cell-based
Conditions: Hepatitis C virus, genotype 1a / genotype 1b; 2209-23 cells (Huh-7 with GT-1b Con1 subgenomic replicon), Renilla luciferase read 72 hours after compound addition; read-out: GT-1a - EC50 (nM) HCV, GT1b, IC50 (µM)
Source text: Determination of compounds HCV GT1b inhibitory replicon activity using the replicon luciferase reporter assay
The 2209-23 cell line was developed at Roche by stable transfection of the hepatoma cell line Huh-7 with a GT-1b Con1 subgenomic bicistronic replicon as previously described. Subgenomic replicon cell line was established in cured Huh7 cells, obtained from R. Bartenschlager (J Virol. 2003 March; 77 (5):3007-19) The GT-1a H77 subgenomic replicon vector pRLuc H77 1b 75 S/I, was created by replacing the nonstructural region of the GT-1b Con1 subgenomic replicon by the one of the H77 strain, except for the first 75 amino acids of the NS3 protein that are from GT-1b Conl strain. (J. Virol. 2001 77:5352-59) The GT-1a pRLuc H77 1b 75 S/I subgenomic replicon cell line was established in cured Huh7 cells, obtained from R. Bartenschlager. (J Virol. 2003 March; 77 (5):3007-19)
All the subgenomic replicon cell lines were cultured in Dulbecco's Modified Eagle Medium (DMEM-Glutamax™-I; Invitrogen Cat #10569-010). The medium was supplemented with 10% Fetal Bovine Serum (Invitrogen Cat #10082-147), 1% penicillin/streptomycin (Mediatech Cat #30-002-CI) and 500 μg/ml of G418 (Mediatech Cat #30-234-CI). Cells were maintained at 37° C. in a humidified 5% CO2 atmosphere.
2209-23 cells were plated at a cell density of 5000 cells per well in 96 well plates (Becton Dickinson, Cat #35 3296). Cells were plated in 90 μl of Dulbecco's Modified Eagle Medium (DMEM-Glutamax™-I), (Invitrogen Cat #10569-010) medium was supplemented with 5% Fetal Bovine Serum (Invitrogen Cat #10082-147), 1% penicillin/streptomycin (Mediatech Cat #30-002-CI). The pRluc H77 1b 75 SA cells were plated in 96-well plate at 3000 cells/well in DMEM-Glutamax™-I containing 5% FBS and 1% penicillin/streptomycin in 90 μl final volume. Cells were allowed to equilibrate for 24 hours at 37° C. and 5% CO2 at which time compounds were added. Compounds (or medium as a control) were added 24 hours post-plating in 3 fold dilutions at a final DMSO concentration of 1% in 10 μl volume. Renilla luciferase reporter signal was read 72 hours after addition of compounds using the Renilla Luciferase Assay System (Promega, cat #E2820). EC50 values were defined as the compound concentration at which a 50% reduction in the levels of renilla luciferase reporter was observed as compared to control samples in the absence of compound and was determined by non-linear fitting of compound dose-response data. The EC50 was approximated if maximum percentage inhibition was less than 90% and more than 70%.

COC(=O)[C@@H]1C[C@H](NC(=O)c2ccc3ccccc3c2O)CCN1CC1CCCCC1 [Compound I-6, (2S,4R)-1-Cyclohexylmethyl-4-[(1-hydroxy-naphthalene-2-carbonyl)-amino]-piperidine-2-carboxylic acid methyl ester]
IC50: 55 nM

COC(=O)[C@@H]1C[C@H](NC(=O)c2ccc3ccccc3c2O)CN1Cc1ccccc1 [Compound I-11, (2S,4S)-1-Benzyl-4-[(1-hydroxy-naphthalene-2-carbonyl)-amino]-pyrrolidine-2-carboxylic acid methyl ester]
IC50: 121 nM

CCOC(=O)[C@@H]1C[C@H](NC(=O)c2ccc3ccccc3c2O)CN1CC1CCCCC1 [Compound I-4, (2S,4S)-1-Cyclohexylmethyl-4-[(1-hydroxy-naphthalene-2-carbonyl)-amino]-pyrrolidine-2-carboxylic acid ethyl ester]
IC50: 29 nM
